We go through 16 compounds from patent US9265253B2, “Use of macrocyclic picolinamides as fungicides” (DOW AGROSCIENCES LLC, priority 2013, dated 2016).

Like-named read-outs stand apart in the source and are kept apart here.

The subject of experiment [1] is Mycosphaerella graminicola; Anamorph: Septoria tritici. The experiment is described as follows: Leaf Blotch of Wheat (SEPTTR) disease control. In kind it is in vivo. As to conditions: Zymoseptoria tritici; for pest or weed control at 100 ppm: rate 100 ppm; for pest or weed control at 121.5 g/ha: rate 121.5 g/H. The protocol:
(§1) Technical grades of materials were dissolved in acetone, which were then mixed with nine volumes of water containing 110 ppm Triton X-100. The fungicide solutions were applied onto wheat seedlings using an automated booth sprayer to run-off. All sprayed plants were allowed to air dry prior to further handling. All fungicides were evaluated using the aforementioned method for their activity vs. all target diseases. Wheat leaf blotch and brown rust activity were also evaluated using track spray applications, in which case the fungicides were formulated as EC formulations, containing 0.1% Trycol 5941 in the spray solutions. Wheat plants (variety Yuma) were grown from seed in a greenhouse in 50% mineral soil/50% soil-less Metro mix until the first leaf was fully emerged, with 7-10 seedlings per pot. These plants were inoculated with an aqueous spore suspension of Septoria tritici either prior to or after fungicide treatments. After inoculation the plants were kept in 100% relative humidity (one day in a dark dew chamber followed by two to three days in a lighted dew chamber at 20° C.) to permit spores to germinate and infect the leaf. The plants were then transferred to a greenhouse set at 20° C. for disease to develop. When disease symptoms were fully expressed on the 1st leaves of untreated plants, infection levels were assessed on a scale of 0 to 100 percent disease severity. Percent disease control was calculated using the ratio of disease severity on treated plants relative to untreated plants.

Experiment [2] relates to Puccinia triticina; Synonym: Puccinia recondite f. Sp. Tritici. In words: Wheat Brown Rust (PUCCRT) disease control. It is filed as in vivo. As to conditions: Puccinia triticina, topical. How it is done:
as §1, with “plants. Wheat plants (variety Yuma) were grown from seed in a greenhouse in 50% mineral soil/50% soil-less Metro mix until the first leaf was fully emerged, with 7-10 seedlings per pot. These plants were inoculated with an aqueous spore suspension of Puccinia triticina either prior to or after fungicide treatments. After inoculation the plants were kept in a dark dew room at 22° C. with 100% relative humidity overnight to permit spores to germinate and infect the leaf. The plants were then transferred to a greenhouse set at 24° C. for disease to develop. Fungicide formulation, application and disease assessment followed the procedures as described in the Example A.” for “plants.”

Where [3] appears, read: 24 h, 1 Day Protectant, read-out: SEPTTR 1 DP disease control.
The mark [4] stands for this setting: 72 h, 3 Day Curative, read-out: SEPTTR 3 DC disease control.
The mark [5] stands for this setting: 24 h, 1 Day Protectant, rate 100 ppm, read-out: PUCCRT 1 DP disease control.
The mark [6] stands for this setting: 24 h, 1 Day Protectant, rate 121.5 g/H, read-out: PUCCRT 1 DP disease control.
Where [7] appears, read: 72 h, 3 Day Curative, rate 100 ppm, read-out: PUCCRT 3 DC disease control.
The mark [8] stands for this setting: 72 h, 3 Day Curative, rate 121.5 g/H, read-out: PUCCRT 3 DC disease control.

For `COc1ccnc(C(=O)N[C@H]2CCC[C@H](CCOCC3CC3)[C@@H](OCC3CC3)[C@H](C)OC2=O)c1OC(C)=O` [Compound F83], the pest or weed control at 100 ppm in experiment [1] (setting [3]), in experiment [2] (setting [5]) and in experiment [2] (setting [7]) was 80 to 100% each time. The pest or weed control at 121.5 g/ha in experiment [1] (setting [3]) lay in the range of 0 to 80%; in experiment [1] (setting [4]), 0 to 80%; in experiment [2] (setting [6]) it was 80 to 100%; in experiment [2] (setting [8]) it was 80 to 100%.

In the case of `COc1ccnc(C(=O)N[C@H]2CCC[C@H](CCOCC3CC3)[C@@H](OCC3CC3)[C@H](C)OC2=O)c1O` [Compound F54], the pest or weed control at 100 ppm was in the range of 0 to 80% in experiment [1] (setting [3]), 80 to 100% in experiment [1] (setting [4]), 80 to 100% in experiment [2] (setting [5]) and 80 to 100% in experiment [2] (setting [7]).

For `COc1ccnc(C(=O)N[C@H]2CCC[C@@H]3CCO[C@H]3[C@H](C)OC2=O)c1OCOC(C)=O` [Compound F143], the pest or weed control at 100 ppm was 0 to 80% in experiment [1] (setting [3]), 0 to 80% in experiment [1] (setting [4]), 80 to 100% in experiment [2] (setting [5]) and 80 to 100% in experiment [2] (setting [7]). Moreover, the pest or weed control at 121.5 g/ha in experiment [1] (setting [3]) was in the range of 0 to 80%; in experiment [2] (setting [6]), 80 to 100%; in experiment [2] (setting [8]), 80 to 100%.

For the compound `COc1ccnc(C(=O)N[C@H]2CCC[C@H](Cc3ccc(F)cc3)[C@@H](Oc3ccccc3)[C@H](C)OC2=O)c1OCOC(C)=O` [Compound F99], the pest or weed control at 100 ppm in experiment [1] (setting [3]), in experiment [1] (setting [4]), in experiment [2] (setting [5]) and in experiment [2] (setting [7]) was 80 to 100% each time. Also, the pest or weed control at 121.5 g/ha lay in the range of 80 to 100% in experiment [1] (setting [3]), 80 to 100% in experiment [1] (setting [4]), 80 to 100% in experiment [2] (setting [6]) and 0 to 80% in experiment [2] (setting [8]).

Turning to `CCOCC(=O)OCOc1c(OC)ccnc1C(=O)N[C@H]1CCC[C@H](Cc2ccc(F)cc2)[C@@H](Oc2ccccc2)[C@H](C)OC1=O` [Compound F165], the pest or weed control at 100 ppm in experiment [1] (setting [3]), in experiment [1] (setting [4]), in experiment [2] (setting [5]) and in experiment [2] (setting [7]) was 80 to 100% throughout. The pest or weed control at 121.5 g/ha lay in the range of 80 to 100% in experiment [1] (setting [3]), 80 to 100% in experiment [1] (setting [4]), 80 to 100% in experiment [2] (setting [6]) and 0 to 80% in experiment [2] (setting [8]).

For the compound `COc1ccnc(C(=O)N[C@H]2CCC[C@H](CCC(C)C)[C@@H](Oc3ccccc3)[C@H](C)OC2=O)c1O` [Compound F1], the pest or weed control at 100 ppm in experiment [1] (setting [3]) was 80 to 100%; in experiment [1] (setting [4]) it was 80 to 100%; in experiment [2] (setting [5]), 80 to 100%; in experiment [2] (setting [7]), 0 to 80%.

Turning to `CCOCC(=O)OCOc1c(OC)ccnc1C(=O)N[C@H]1CCC[C@H](Cc2ccc(OC)cc2)[C@@H](OCC2CC2)[C@H](C)OC1=O` [Compound F177], the pest or weed control at 100 ppm in experiment [1] (setting [3]), in experiment [1] (setting [4]), in experiment [2] (setting [5]) and in experiment [2] (setting [7]) was 80 to 100% in each case. Further, the pest or weed control at 121.5 g/ha in experiment [1] (setting [3]), in experiment [1] (setting [4]), in experiment [2] (setting [6]) and in experiment [2] (setting [8]) was 80 to 100% throughout.

Turning to `CCOCC(=O)Oc1c(OC)ccnc1C(=O)N[C@H]1CCC[C@H](CCOC)[C@@H](OCC(C)C)[C@H](C)OC1=O` [Compound F188], the pest or weed control at 100 ppm in experiment [1] (setting [3]), in experiment [1] (setting [4]), in experiment [2] (setting [5]) and in experiment [2] (setting [7]) was 80 to 100% throughout. For the same compound, the pest or weed control at 121.5 g/ha in experiment [1] (setting [3]), in experiment [1] (setting [4]), in experiment [2] (setting [6]) and in experiment [2] (setting [8]) was 80 to 100% in each case.

As for `COc1ccnc(C(=O)N[C@H]2CCC[C@H](CCOCC3CC3)[C@@H](OCC3CC3)[C@H](C)OC2=O)c1OCOC(C)=O` [Compound F140], the pest or weed control at 100 ppm is 80 to 100% in experiment [1] (setting [3]), 0 to 80% in experiment [1] (setting [4]), 80 to 100% in experiment [2] (setting [5]) and 80 to 100% in experiment [2] (setting [7]). Besides, the pest or weed control at 121.5 g/ha in experiment [1] (setting [3]) lay within 0 to 80%; in experiment [1] (setting [4]) it was 0 to 80%; in experiment [2] (setting [6]), 80 to 100%; in experiment [2] (setting [8]), 80 to 100%.

Take `CCOCC(=O)OCOc1c(OC)ccnc1C(=O)N[C@H]1CCC[C@H](CC2CCCC2)[C@@H](Oc2ccccc2)[C@H](C)OC1=O` [Compound F176]: the pest or weed control at 100 ppm in experiment [1] (setting [3]), in experiment [1] (setting [4]), in experiment [2] (setting [5]) and in experiment [2] (setting [7]) was 80 to 100% in each case. Further, the pest or weed control at 121.5 g/ha in experiment [1] (setting [3]) was 80 to 100%; in experiment [1] (setting [4]), 80 to 100%; in experiment [2] (setting [6]), 80 to 100%; in experiment [2] (setting [8]), 0 to 80%.

As for `COc1ccnc(C(=O)N[C@H]2CCC[C@H](CCC(C)C)[C@@H](OCC(C)C)[C@H](C)OC2=O)c1O` [Compound F2], the pest or weed control at 100 ppm in experiment [1] (setting [3]) fell in the range of 80 to 100%; in experiment [1] (setting [4]), 80 to 100%; in experiment [2] (setting [5]), 80 to 100%; in experiment [2] (setting [7]), 0 to 80%.

In the case of `COc1ccnc(C(=O)N[C@H]2CCC[C@H](Cc3ccccc3)[C@@H](OC3CCCC3)[C@H](C)OC2=O)c1O` [Compound F22], the pest or weed control at 100 ppm in experiment [1] (setting [3]), in experiment [1] (setting [4]), in experiment [2] (setting [5]) and in experiment [2] (setting [7]) was 80 to 100% each time.

`COc1ccnc(C(=O)N[C@H]2CCC[C@@H]3CCO[C@H]3[C@H](C)OC2=O)c1OC(C)=O` [Compound F85]: the values for the pest or weed control at 121.5 g/ha in experiment [1] (setting [3]), in experiment [2] (setting [6]) and in experiment [2] (setting [8]) were 0 to 80%, 80 to 100% and 80 to 100%, respectively.

With `CCCO[C@@H]1[C@@H](Cc2ccccc2)CCC[C@H](NC(=O)c2nccc(OC)c2O)C(=O)O[C@H]1C` [Compound F21], the pest or weed control at 100 ppm in experiment [1] (setting [3]) was 0 to 80%; in experiment [1] (setting [4]), 0 to 80%; in experiment [2] (setting [5]) it was 80 to 100%; in experiment [2] (setting [7]) it was 80 to 100%.

On to `CCOCC(=O)OCOc1c(OC)ccnc1C(=O)N[C@H]1CCC[C@@H]2CCO[C@H]2[C@H](C)OC1=O` [Compound F192], for which the pest or weed control at 100 ppm in experiment [2] (24 h, Wheat Brown Rust, 1 Day Protectant, rate 100 ppm (high volume application), read-out: Disease control PUCCRT 1 DP) fell in the range of 80 to 100%; in experiment [2] (72 h, Wheat Brown Rust, 3 Day Curative, rate 100 ppm (high volume application), read-out: Disease control PUCCRT 3 DC) it was 80 to 100%. Further, the pest or weed control at 121.5 g/ha in experiment [2] (24 h, Wheat Brown Rust, 1 Day Protectant, rate 121.5 g/H (low volume application), read-out: Disease control PUCCRT 1 DP) was in the range of 80 to 100%; in experiment [2] (72 h, Wheat Brown Rust, 3 Day Curative, rate 121.5 g/H (low volume application), read-out: Disease control PUCCRT 3 DC), 80 to 100%.

For the compound `COc1ccnc(C(=O)N[C@H]2CCC[C@@H]3CCO[C@H]3[C@H](C)OC2=O)c1O` [Compound F58], the pest or weed control at 100 ppm in experiment [2] (setting [5]) and in experiment [2] (setting [7]) was 80 to 100% in each case.
